Test results published in ChEMBL document CHEMBL4680271, “COVID-19: Drug Targets and Potential Treatments” (J Med Chem, 2020).

Key:
[1] = target: Procathepsin L (Homo sapiens) (UniProt P07711); experiment: Inhibition of Cathepsin L in HEK293 cells harboring human ACE2 assessed as reduction in SARS-CoV-2 S pseudovirions entry into host cell pretreated for 1 hr followed by viral infection and measured after overnight incubation by luciferase method; type: cell-based; settings: concentration not given here
Procathepsin L (Homo sapiens), sequence (P07711 114-333 limits assumed): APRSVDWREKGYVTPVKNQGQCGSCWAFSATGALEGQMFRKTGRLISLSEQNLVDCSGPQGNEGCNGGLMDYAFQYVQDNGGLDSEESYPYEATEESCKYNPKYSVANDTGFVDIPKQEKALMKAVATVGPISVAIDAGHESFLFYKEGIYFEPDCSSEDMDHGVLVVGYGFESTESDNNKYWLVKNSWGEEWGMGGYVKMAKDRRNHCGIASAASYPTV

[2] = test system: SARS-CoV-2; experiment: Antiviral activity against nCoV-2019 BetaCoV/Wuhan/WIV04/2019 infected in African green monkey VeroE6 cells assessed as reduction in viral yield preincubated for 1 hr followed by viral infection and further replacement of fresh medium containing compound and measured at 48 hrs post infection by qRT-PCR method; type: functional, organism-based; settings: Severe acute respiratory syndrome coronavirus 2, BetaCoV/Wuhan/WIV04/2019, Vero C1008

SMILES	inhibition [1] [%]	EC50 [2] [µM]
CCc1ccccc1NC(=O)CSC(=O)NNC(=O)[C@H](Cc1c[nH]c2ccccc12)NC(=O)OC(C)(C)C	> 76	
Nc1nc2c(ncn2CCC(CO)CO)c(=O)[nH]1 [PENCICLOVIR]		96
